“And” between values parts separate entries of the source, which are not always exact repeats. Equal entries are not always repeated.
Legend:
[1] = organism: Rattus norvegicus; assay: Compound was evaluated for the uptake inhibition of [3H]-5-HT in rats; assay type: functional
[2] = system: Rattus norvegicus; assay: Momoamine and metabolic levels observed 1 week following acute dosing at a dose of 10 mg/kg Frontal cortex DA; assay type: ADME, organism-based; parameters: dose 10 mg/kg; conditions: in vivo, 168 h
[3] = system: Rattus norvegicus; assay: Momoamine and metabolic levels observed 2 weeks following sub-acute dosing against Frontal cortex HVA; assay type: ADME, organism-based; conditions: in vivo, 336 h
[4] = system: Rattus norvegicus; assay: Momoamine and metabolic levels observed 1 week following acute dosing at a dose of 10 mg/kg Frontal cortex NE; assay type: ADME, organism-based; parameters: dose 10 mg/kg; conditions: in vivo, 168 h
[5] = biological target: Sodium-dependent serotonin transporter (Rattus norvegicus) (UniProt P31652); assay: Number of uptake sites for [3H]paroxetine receptor binding after sub-acute dosing against Hippocampus
[6] = system: Rattus norvegicus; assay: Momoamine and metabolic levels observed 1 week following acute dosing at a dose of 10 mg/kg Frontal cortex DOPAC; assay type: ADME, organism-based; parameters: dose 10 mg/kg; conditions: in vivo, 168 h
[7] = system: Rattus norvegicus; assay: Percentage of non disrupted rats that selected the drug lever, when given at a dose of 0.50 mg/kg in LSD-Trained rats; assay type: functional; conditions: dose 0.5 mg/kg
[8] = system: Rattus norvegicus; assay: Momoamine and metabolic levels observed 1 week following acute dosing against at a dose of 20 mg/kg Hippocampus NE; assay type: ADME, organism-based; parameters: dose 20 mg/kg; conditions: in vivo, 168 h
[9] = system: Rattus norvegicus; assay: Momoamine and metabolic levels observed 1 week following acute dosing against at a dose of 20 mg/kg Frontal cortex 5-HT; assay type: ADME, organism-based; parameters: dose 20 mg/kg; conditions: in vivo, 168 h
[10] = system: Rattus norvegicus; assay: Momoamine and metabolic levels observed 1 week following acute dosing against at a dose of 20 mg/kg Hippocampus 5-HT; assay type: ADME, organism-based; parameters: dose 20 mg/kg; conditions: in vivo, 168 h
[11] = system: Rattus norvegicus; assay: Effective dose was evaluated for drug discrimination in I-trained rats, when given at a dose of 1.16 micro mol/kg; assay type: functional
[12] = system: Rattus norvegicus; assay: Momoamine and metabolic levels observed 2 weeks following sub-acute dosing against Frontal cortex 5-HT; assay type: ADME, organism-based; conditions: in vivo, 336 h
[13] = system: Rattus norvegicus; assay: Momoamine and metabolic levels observed 1 week following acute dosing against at a dose of 20 mg/kg Frontal cortex DA; assay type: ADME, organism-based; parameters: dose 20 mg/kg; conditions: in vivo, 168 h
[14] = system: Rattus norvegicus; assay: Momoamine and metabolic levels observed 2 weeks following sub-acute dosing against Hippocampus NE; assay type: ADME, organism-based; conditions: in vivo, 336 h
[15] = system: Rattus norvegicus; assay: Momoamine and metabolic levels observed 1 week following acute dosing at a dose of 10 mg/kg Frontal cortex HVA; assay type: ADME, organism-based; parameters: dose 10 mg/kg; conditions: in vivo, 168 h
[16] = system: Rattus norvegicus; assay: Momoamine and metabolic levels observed at 3 h postdrug against at a dose of 20 mg/kg Frontal cortex DOPAC; assay type: ADME, organism-based; parameters: dose 20 mg/kg; conditions: in vivo
[17] = system: Rattus norvegicus; assay: Percentage of non disrupted rats that selected the drug lever, when given at a dose of 0.25 mg/kg in S-Amphetamine-Trained rats; assay type: functional
[18] = system: Rattus norvegicus; assay: Momoamine and metabolic levels observed 1 week following acute dosing against at a dose of 20 mg/kg Frontal cortex 5-HIAA; assay type: ADME, organism-based; parameters: dose 20 mg/kg; conditions: in vivo, 168 h
[19] = biological target: Sodium-dependent serotonin transporter (Rattus norvegicus) (UniProt P31652); assay: Number of uptake sites for [3H]paroxetine receptor binding after sub-acute dosing against Frontal cortex; assay type: tissue-based
[20] = system: Rattus norvegicus; assay: Momoamine and metabolic levels observed 1 week following acute dosing at a dose of 10 mg/kg Frontal cortex 5-HT; assay type: ADME, organism-based; parameters: dose 10 mg/kg; conditions: in vivo, 168 h
[21] = system: Rattus norvegicus; assay: Percentage of non disrupted rats that selected the drug lever, when given at a dose of 0.25 mg/kg; assay type: functional
[22] = system: Rattus norvegicus; assay: Effective dose was evaluated for drug discrimination in S-trained rats, when given at a dose of 0.25 mg/kg; assay type: functional
[23] = system: Rattus norvegicus; assay: Momoamine and metabolic levels observed 2 weeks following sub-acute dosing against Frontal cortex DA; assay type: ADME, organism-based; conditions: in vivo, 336 h
[24] = system: Rattus norvegicus; assay: Momoamine and metabolic levels observed 1 week following acute dosing at a dose of 10 mg/kg Frontal cortex 5-HIAA; assay type: ADME, organism-based; parameters: dose 10 mg/kg; conditions: in vivo, 168 h
[25] = system: Rattus norvegicus; assay: Percentage of non disrupted rats that selected the drug lever, when given at a dose of 0.25 mg/kg in LSD-Trained rats; assay type: functional
[26] = system: Rattus norvegicus; assay: Momoamine and metabolic levels observed 1 week following acute dosing against at a dose of 20 mg/kg Hippocampus 5-HIAA; assay type: ADME, organism-based; parameters: dose 20 mg/kg; conditions: in vivo, 168 h
[27] = system: Rattus norvegicus; assay: Percentage of non disrupted rats that selected the drug lever, when given at a dose of 2.00 mg/kg in LSD-Trained rats; assay type: functional
[28] = system: Rattus norvegicus; assay: Momoamine and metabolic levels observed 1 week following acute dosing against at a dose of 10 mg/kg Hippocampus 5-HT; assay type: ADME, organism-based; parameters: dose 10 mg/kg; conditions: in vivo, 168 h
[29] = system: Rattus norvegicus; assay: Momoamine and metabolic levels observed at 3 hr postdrug against at a dose of 20 mg/kg Frontal cortex DA; assay type: ADME, organism-based; parameters: dose 20 mg/kg; conditions: in vivo
[30] = system: Rattus norvegicus; assay: Momoamine and metabolic levels observed at 3 hr postdrug against at a dose of 20 mg/kg Frontal cortex NE; assay type: ADME, organism-based; parameters: dose 20 mg/kg; conditions: in vivo
[31] = system: Rattus norvegicus; assay: Effective dose was evaluated for drug discrimination in I-trained rats, when given at a dose of 0.25 mg/kg; assay type: functional; conditions: Rattus norvegicus; read-out: ED50
[32] = system: Rattus norvegicus; assay: Momoamine and metabolic levels observed at 3 hr postdrug against at a dose of 20 mg/kg Hippocampus NE; assay type: ADME, organism-based; parameters: dose 20 mg/kg; conditions: in vivo
[33] = system: Rattus norvegicus; assay: Momoamine and metabolic levels observed 2 weeks following sub-acute dosing against Frontal cortex NE; assay type: ADME, organism-based; conditions: in vivo, 336 h
[34] = system: Rattus norvegicus; assay: Percentage of non disrupted rats that selected the drug lever, when given at a dose of 1.00 mg/kg in S-Amphetamine-Trained rats; assay type: functional
[35] = system: Rattus norvegicus; assay: Percentage of non disrupted rats that selected the drug lever, when given at a dose of 1.00 mg/kg; assay type: functional
[36] = system: Rattus norvegicus; assay: Effective dose was evaluated for drug discrimination in S-trained rats, when given at a dose of 0.25 umol/kg; assay type: functional
[37] = system: Rattus norvegicus; assay: Momoamine and metabolic levels observed at 3 hr postdrug against at a dose of 20 mg/kg Hippocampus 5-HIAA; assay type: ADME, organism-based; parameters: dose 20 mg/kg; conditions: in vivo
[38] = system: Rattus norvegicus; assay: Percentage of non disrupted rats that selected the drug lever, when given at a dose of 2.00 mg/kg; assay type: functional
[39] = system: Rattus norvegicus; assay: Momoamine and metabolic levels observed 1 week following acute dosing at a dose of 10 mg/kg Hippocampus 5-HIAA; assay type: ADME, organism-based; parameters: dose 10 mg/kg; conditions: in vivo, 168 h
[40] = system: Rattus norvegicus; assay: Momoamine and metabolic levels observed 1 week following acute dosing against at a dose of 10 mg/kg Hippocampus NE; assay type: ADME, organism-based; parameters: dose 10 mg/kg; conditions: in vivo, 168 h
[41] = system: Rattus norvegicus; assay: Momoamine and metabolic levels observed 1 week following acute dosing against at a dose of 20 mg/kg Frontal cortex NE; assay type: ADME, organism-based; parameters: dose 20 mg/kg; conditions: in vivo, 168 h
[42] = system: Rattus norvegicus; assay: Percentage of non disrupted rats that selected the drug lever, when given at a dose of 0.5 mg/kg; assay type: functional
[43] = system: Rattus norvegicus; assay: Momoamine and metabolic levels observed 1 week following acute dosing against at a dose of 20 mg/kg Frontal cortex HVA; assay type: ADME, organism-based; parameters: dose 20 mg/kg; conditions: in vivo, 168 h
[44] = system: Rattus norvegicus; assay: Momoamine and metabolic levels observed at 3 hr postdrug against at a dose of 20 mg/kg Frontal cortex HVA; assay type: ADME, organism-based; parameters: dose 20 mg/kg; conditions: in vivo
[45] = system: Rattus norvegicus; assay: Momoamine and metabolic levels observed 2 weeks following sub-acute dosing against Frontal cortex DOPAC; assay type: ADME, organism-based; conditions: in vivo, 336 h
[46] = system: Rattus norvegicus; assay: Momoamine and metabolic levels observed 2 weeks following sub-acute dosing against Hippocampus 5-HT; assay type: ADME, organism-based; conditions: in vivo, 336 h
[47] = system: Rattus norvegicus; assay: Momoamine and metabolic levels observed at 3 hr postdrug against at a dose of 20 mg/kg Frontal cortex 5-HIAA; assay type: ADME, organism-based; parameters: dose 20 mg/kg; conditions: in vivo
[48] = system: Rattus norvegicus; assay: Momoamine and metabolic levels observed at 3 hr postdrug against at a dose of 20 mg/kg Frontal cortex 5-HT; assay type: ADME, organism-based; parameters: dose 20 mg/kg; conditions: in vivo
[49] = system: Rattus norvegicus; assay: Percentage of non disrupted rats that selected the drug lever, when given at a dose of 0.5 mg/kg in S-Amphetamine-Trained rats; assay type: functional
[50] = system: Rattus norvegicus; assay: Momoamine and metabolic levels observed 2 weeks following sub-acute dosing against Frontal cortex 5-HIAA; assay type: ADME, organism-based; conditions: in vivo, 336 h
[51] = system: Rattus norvegicus; assay: Momoamine and metabolic levels observed 1 week following acute dosing against at a dose of 20 mg/kg Frontal cortex DOPAC; assay type: ADME, organism-based; parameters: dose 20 mg/kg; conditions: in vivo, 168 h
[52] = system: Rattus norvegicus; assay: Momoamine and metabolic levels observed 2 weeks following sub-acute dosing against Hippocampus 5-HIAA; assay type: ADME, organism-based; conditions: in vivo, 336 h
[53] = system: Rattus norvegicus; assay: Percentage of non disrupted rats that selected the drug lever, when given at a dose of 1.50 mg/kg; assay type: functional; conditions: dose 1.5 mg/kg
[54] = system: Rattus norvegicus; assay: Effective dose was evaluated for drug discrimination in I-trained rats, when given at a dose of 2.32 micro mol/kg; assay type: functional
[55] = system: Rattus norvegicus; assay: Effective dose was evaluated for drug discrimination in I-trained rats, when given at a dose of 0.5 mg/kg; assay type: functional
[56] = organism: Rattus norvegicus; assay: Effective dose was evaluated for drug discrimination in I-trained rats; assay type: functional

Sodium-dependent serotonin transporter (Rattus norvegicus), sequence (P31652 whole entry): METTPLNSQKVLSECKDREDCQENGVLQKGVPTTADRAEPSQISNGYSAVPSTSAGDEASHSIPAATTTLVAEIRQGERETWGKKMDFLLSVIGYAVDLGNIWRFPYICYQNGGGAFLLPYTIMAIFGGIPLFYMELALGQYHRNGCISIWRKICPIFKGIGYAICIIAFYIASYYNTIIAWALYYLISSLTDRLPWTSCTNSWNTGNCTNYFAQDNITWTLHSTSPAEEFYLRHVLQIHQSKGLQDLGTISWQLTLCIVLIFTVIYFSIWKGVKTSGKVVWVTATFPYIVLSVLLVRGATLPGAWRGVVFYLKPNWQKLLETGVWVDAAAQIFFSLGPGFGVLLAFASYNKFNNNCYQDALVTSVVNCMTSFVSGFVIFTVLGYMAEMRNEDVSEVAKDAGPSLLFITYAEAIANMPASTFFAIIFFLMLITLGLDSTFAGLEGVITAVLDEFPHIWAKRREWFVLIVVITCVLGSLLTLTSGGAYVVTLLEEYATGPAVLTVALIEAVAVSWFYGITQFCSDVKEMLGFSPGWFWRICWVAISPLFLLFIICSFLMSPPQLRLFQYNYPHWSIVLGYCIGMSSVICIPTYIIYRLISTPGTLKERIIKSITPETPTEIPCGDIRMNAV

## COc1cc(CC(C)N)ccc1C (stereo not drawn)
[1]
  IC50: 136 nM
[2]
  Metabolite level: 88
[3]
  Metabolite level: 62
[4]
  Metabolite level: 394
[5]
  No. of uptake sites: 14.9
[6]
  Metabolite level: 39
[7]
  SDL: 38%
[8]
  Metabolite level: 578
[9]
  Metabolite level: 316
[10]
  Metabolite level: 431
[11]
  ED50: 2.74 µmol/kg
[12]
  Metabolite level: 411
[13]
  Metabolite level: 86
[14]
  Metabolite level: 724
[15]
  Metabolite level: 70
[16]
  Metabolite level: 46
[17]
  SDL: 0%
[18]
  Metabolite level: 229
[19]
  No. of uptake sites: 12.3
[20]
  Metabolite level: 281
[21]
  SDL: 11%
[22]
  ED50: 0.47 mg/kg
[23]
  Metabolite level: 83
[24]
  Metabolite level: 233
[25]
  SDL: 0%
[26]
  Metabolite level: 430
[27]
  SDL: 75%
[28]
  Metabolite level: 255
[29]
  Metabolite level: 120
[30]
  Metabolite level: 585
[31]
  ED50: 0.59 mg/kg
[32]
  Metabolite level: 641
[33]
  Metabolite level: 573
[34]
  SDL: 0%
[35]
  SDL: 63%
[36]
  ED50: 2.16 µmol/kg
[37]
  Metabolite level: 260
[38]
  SDL: 100%
[39]
  Metabolite level: 460
[40]
  Metabolite level: 620
[41]
  Metabolite level: 487
[42]
  SDL: 50%
[43]
  Metabolite level: 85
[44]
  Metabolite level: 138
[45]
  Metabolite level: 74
[46]
  Metabolite level: 392
[47]
  Metabolite level: 139
[48]
  Metabolite level: 212
[49]
  SDL: 0%
[50]
  Metabolite level: 253
[51]
  Metabolite level: 45
[52]
  Metabolite level: 503

## COc1cc(C[C@@H](C)N)ccc1C
[1]
  IC50: 200 nM
[53]
  SDL: 100%
[11]
  ED50: 2.12 µmol/kg
[54]
  ED50: 2.12 µmol/kg
[21]
  SDL: 33%
[55]
  ED50: 0.46 mg/kg
[31]
  ED50: 0.46 mg/kg
[35]
  SDL: 75%
[42]
  SDL: 38%

## CNC(C)Cc1ccc2c(c1)OCO2 (stereo not drawn) [MIDOMAFETAMINE]
[56]
  ED50: 0.64 mg/kg and 2.79 µmol/kg

## C[C@H](N)Cc1ccccc1 [DEXTROAMPHETAMINE]
[56]
  ED50: 0.31 mg/kg and 1.69 µmol/kg

From ChEMBL document CHEMBL1125697, “Synthesis and pharmacological examination of 1-(3-methoxy-4-methylphenyl)-2-aminopropane and 5-methoxy-6-methyl-2-aminoindan: similarities to 3,4-(methylenedioxy)methamphetamine (MDMA)” (J Med Chem, 1991)
